# According to US11607404B2, “Combinations of RAD51 and PARP inhibitors” (Cyteir Therapeutics, Inc., priority 2019, dated 2023):
# Legend:
# HBCx27 model = test: Tumor growth inhibition, subcutaneous engrafted tumor model; type: in vivo, mice; conditions: HRD Negative, RAD51 High, BRCA WT, PALB2 WT, 67A 80 mg/kg QD, olaparib 100 mg/kg QD, combo both
# Method: (§1) Immunodeficient mice were subcutaneously engrafted in the rear flank with the tumor cells. The tumors were allowed to grow to a size of about 100 to about 200 mm^3 prior to being randomized and grouped into treatment arms. For models […] through […] the four treatment arms were vehicle, Compound 67A at 80 mg/kg QD, olaparib at 100 mg/kg QD, and Compound 67A+Olaparib at 80 mg/kg QD and 100 mg/kg QD, respectively. For models J000101173 through TM00091 the treatment arms were vehicle, Compound 67A at 40 mg/kg QD, olaparib at 50 mg/kg QD, and Compound 67A+Olaparib at 40 mg/kg QD and 50 mg/kg QD, respectively. The tumors were measured either once weekly or twice weekly.
# (§2) Percent Tumor Growth Inhibition (% TGI) was calculated by taking the mean volume of each of the treatment arms, and comparing the treatment arms to the vehicle arms using the following equation
# HBCx1 model = test: as above; type: in vivo, mice; conditions: HRD Positive, RAD51 High, BRCA WT, PALB2 WT, 67A 80 mg/kg QD, olaparib 100 mg/kg QD, combo both
# Method: as §1, §2
# TM01079 model = test: as above; type: in vivo, mice; conditions: HRD Positive, RAD51 Low, BRCA1 Meth, PALB2 WT, 67A 40 mg/kg QD, olaparib 50 mg/kg QD, combo both
# Method: as §1, §2
# TM00096 model = test: as above; type: in vivo, mice; conditions: HRD Positive, RAD51 Low, BRCA WT, PALB2 WT, 67A 40 mg/kg QD, olaparib 50 mg/kg QD, combo both
# Method: as §1, §2
# HBCx23 model = test: as above; type: in vivo, mice; conditions: HRD Positive, RAD51 High, BRCA1 Meth, PALB2 WT, 67A 80 mg/kg QD, olaparib 100 mg/kg QD, combo both
# Method: as §1, §2
# T298 model = test: as above; type: in vivo, mice; conditions: HRD Positive, RAD51 Low, BRCA WT, PALB2 Mut, 67A 80 mg/kg QD, olaparib 100 mg/kg QD, combo both
# Method: as §1, §2
# TM000113 model = test: as above; type: in vivo, mice; conditions: HRD Negative, RAD51 Low, BRCA WT, PALB2 WT, 67A 40 mg/kg QD, olaparib 50 mg/kg QD, combo both
# Method: as §1, §2
# HBCx11 model = test: as above; type: in vivo, mice; conditions: HRD Positive, RAD51 High, BRCA1 Mut, PALB2 WT, 67A 80 mg/kg QD, olaparib 100 mg/kg QD, combo both
# Method: as §1, §2
# HBCx16 model = test: as above; type: in vivo, mice; conditions: HRD Positive, RAD51 High, BRCA1 Meth, PALB2 WT, 67A 80 mg/kg QD, olaparib 100 mg/kg QD, combo both
# Method: as §1, §2
# TM00091 model = test: as above; type: in vivo, mice; conditions: HRD Positive, RAD51 High, BRCA1 Mut, PALB2 WT, 67A 40 mg/kg QD, olaparib 50 mg/kg QD, combo both
# Method: as §1, §2
# HBCx17 model = test: as above; type: in vivo, mice; conditions: HRD Positive, RAD51 High, BRCA2 Mut, PALB2 WT, 67A 80 mg/kg QD, olaparib 100 mg/kg QD, combo both
# Method: as §1, §2
# J000101173 model = test: as above; type: in vivo, mice; conditions: HRD Positive, RAD51 Low, BRCA WT, PALB2 WT, 67A 40 mg/kg QD, olaparib 50 mg/kg QD, combo both
# Method: as §1, §2
# TM00090 model = test: as above; type: in vivo, mice; conditions: HRD Positive, RAD51 Low, BRCA1 Meth, BRCA2 Mut, PALB2 WT, 67A 40 mg/kg QD, olaparib 50 mg/kg QD, combo both
# Method: as §1, §2
# J000100675 model = test: as above; type: in vivo, mice; conditions: HRD Negative, RAD51 Low, BRCA WT, PALB2 WT, 67A 40 mg/kg QD, olaparib 50 mg/kg QD, combo both
# Method: as §1, §2
# HBCx12B model = test: as above; type: in vivo, mice; conditions: HRD Positive, RAD51 High, BRCA1 Meth, PALB2 WT, 67A 80 mg/kg QD, olaparib 100 mg/kg QD, combo both
# Method: as §1, §2
# [1] = test system: ARPE19/HPV16, KYSE-70 and Daudi cell lines; test: Combination matrix study Compound 67A + PARP inhibitors, cell lines of varying AID expression (Bliss, Loewe); type: cell-based; conditions: non-tumor derived cell line ARPE19/HPV16; in combination with Compound 67A
# Method: The combination matrix was tested in 3 cell lines of varying AID expression: ARPE19/HPV16 (HPV immortalized normal epithelial cell line), KYSE-70 (head and neck cancer cell line) and Daudi (Burkitt's Lymphoma cell line). […] Both the Loewe Additivity model and the Bliss Independence model were used to determine drug interaction (synergistic, independent, or antagonistic).
# Bliss Independence model was used and calculated in Excel. The model assumes that the drugs act with probabilistic independence. Bliss: yexp=yA+yB−yAyB
# This expected value was generated by examining single-agent effects and then tested against the observed value using a two-tailed Welch's T-Test. For visualization purposes, the values generated from this test were transformed to a “Synergy Score” by doing the computation:
# Loewe Additivity model was used and calculated by the “Synergyfinder” R package.
# The graphs generated describe the difference between the expected value generated by the additivity model and the observed value generated by the experiment. If the effect determined by the additivity model<the effect observed the space is colored red, if the effect determined by the additivity mode>the effect observed then the space is colored green. The saturation of the color is proportional to the magnitude of the difference between these two values.
smiles,measurement,setting,value
"O=C(c1cc(Cc2n[nH]c(=O)c3ccccc23)ccc1F)N1CCN(C(=O)C2CC2)CC1 [Olaparib, olaparib, reference compound]",% TGI,HBCx27 model,7.819%
same,% TGI,HBCx1 model,51.07%
same,% TGI,TM01079 model,68.7%
same,% TGI,TM00096 model,−1.94%
same,% TGI,HBCx23 model,84.48%
same,% TGI,T298 model,107%
same,% TGI,TM000113 model,2.37%
same,% TGI,HBCx11 model,60.95%
same,% TGI,HBCx16 model,−25.61%
same,% TGI,TM00091 model,21.26%
same,% TGI,HBCx17 model,122%
same,% TGI,J000101173 model,4.71%
same,% TGI,TM00090 model,86.05%
same,% TGI,J000100675 model,−17%
same,% TGI,HBCx12B model,42.56%
same,Drug interaction with Compound 67A (synergy),[1],synergy observed
